Results as given in patent US6441027B1, “Method of regulating the female reproductive system through angiogenesis inhibitors” (Children's Medical Center Corporation, priority 1996, dated 2002).
Where two headings read alike, the source gives them in different places.

Experiments:
[1] = 30 mg/kg s.c. every other day, greater than 100 days of therapy; cited from earlier work
[2] = test system: VEGF induced neovascularization; experiment: Mouse corneal micropocket model, VEGF pellet; format: in vivo; conditions: mouse cornea, n=10/group, p<0.001
Method: (§1) To confirm that angiogenesis was being inhibited, AGM-1470 was tested in vivo. A mouse corneal micropocket model was used which was recently developed to model tumor angiogenesis. Pellets of bFGF or VEGF were implanted in the mouse cornea resulting in aggressive neovascularization. AGM-1470 inhibited the amount of bFGF or VEGF induced neovascularization by 47% or 62% respectively (n=10/group p<0.001).

[3] = test system: bFGF induced neovascularization; experiment: Mouse corneal micropocket model, bFGF pellet; format: in vivo; conditions: mouse cornea, n=10/group, p<0.001
Method: as §1

decidual stromal cells = experiment: PCNA staining of decidua on E6; format: in vivo, mouse
Method: To test this hypothesis, mice were treated with AGM-1470 on E1 and sacrificed at E6, a time point prior to placental formation. The uteri of the mice were examined by antibodies to Factor VIII and PCNA to determine if there was any difference in the degree of endometrial angiogenesis or the proliferative response of the decidua induced by trophoblast invasion. However, in the decidua there was a 50% decrease in the proliferation of stromal cells in the AGM-1470 treated mice as compared to control (PCNA staining/X630 field in control was 48%±3, n=4, versus 24%±5, n=4, P≦0.005 in AGM-1470 treated mice. See FIG. 4A and 4B). […]
To determine the rate of cellular proliferation, staining for proliferating cell nuclear antigen (PCNA) was performed. […] Positive staining was detected by using horse radish peroxidase-conjugated secondary (Dako) and tertiary (Dako) antibodies, and DAB as a chromagen. The PCNA labeling index was determined by counting the percentage of stained cells under light microscopy within selected 630× fields. A minimum of 1,000 cells were counted for each specimen.
In experiments with AGM-1470 treatment of pregnant mice, transverse sections through embryos contained within the uterus were stained. Microvessels density was determined at the intersite endometrium and PCNA was determined in the decidual stroma. […]

inseminated mice = experiment: Inseminated mice, single low dose 3 mg/kg; format: in vivo, mouse
Method: The same protocol was followed as was performed for AGM-1470 30 mg/kg except mice were injected with only 3 mg/kg AGM-1470 on E1 or E7. The 10-fold lower dose was tested to determine if a dose in which the fetuses come to term would produce birth defects. Mice were sacrificed at E18 and fetal viability, number of implantation cites, crown-rump length, and tail length were assessed.

plugged mice = experiment: Reversibility: remating after fetal resorption; format: in vivo, mouse; conditions: 30 mg/kg on E1 (n=3) or E7 (n=3), remated six weeks after E18 laparotomy
Method: To establish long-term safety, the course of recovery of the reproductive system after fetal resorption was studied. Six plugged mice were injected with 30 mg/kg AGM-1470 on E1 (n=3) or E7 (n=3) and then anesthetized on E18 in a methoxyflurane (Pittman-Moore, Mandelein, Ill.) chamber so that a laparotomy could be performed. The uteri were inspected to confirm the presence of resorption cites. The incisions were closed with a running 3-0 ethelon™ black monofilament nylon suture (Ethicon, Somerville; N.J.). Animals were observed until fully recovered. After an additional six weeks the mice were remated to determine their ability to become inseminated and deliver a normal litter. […] Therefore, there is a functional recovery of the uterus after AGM-1470 treatment on E1 or E7.

female C57BL/6 mice = format: in vivo, mouse
Method: Group housed female C57BL/6 mice were treated with a single injection of AGM-1470 (30 mg/kg, s.c.) and paired with male breeders at various times after treatment. Treatment groups are designated as the number of days between plugging and treatment. The 6 control groups are combined and expressed as the mean±SD. The number of matings in per group is listed below each labeled group.
The experiment was designed to detect how long before mating a single dose of AGM-1470 might be effective. Sexually mature female mice were treated with a single dose of AGM-1470 (30 mg/kg, s.c.) up to five days prior to mating [designated E(−5), E(−4), E(−3), E(−2), E(−1), or E0 with the date of plugging being E0]. For treatments on E(−5) through E(−1), group-housed female mice were injected with AGM-1470 and then individually paired with male breeders at varying times after injection. For E0 treatment, females were paired with males and then plugged females were injected. Pregnancies were monitored by maternal weights and allowed to go to term. The contraceptive efficacy of a single dose of AGM-1470 on each of these days, calculated by the percentage of matings resulting in any viable deliveries […]. The contraceptive efficacy of a single dose of AGM-1470 on each of these days, expressed as the percentage of matings resulting in viable deliveries is illustrated in FIG. 8.

CO[C@@H]1[C@H](OC(=O)NC(=O)CCl)CC[C@]2(CO2)[C@H]1[C@@]1(C)O[C@@H]1CC=C(C)C [AGM-1470, O-chloroacetylcarbamoyl fumagillol]
toxicity of dosing schedule [1]: no evident toxicity | inhibition of VEGF induced neovascularization [2]: 62% | inhibition of bFGF induced neovascularization [3]: 47% | decrease in proliferation of decidual stromal cells vs control (decidual stromal cells; treated on E1, sacrificed E6): 50% | PCNA staining/X630 field in decidua (decidual stromal cells; treated on E1, sacrificed E6, n=4): 24%±5 | reduction of crown-rump length on E18 relative to control (inseminated mice; 3 mg/kg on E1): 36% | reduction of tail length relative to control (inseminated mice; 3 mg/kg on E1): 43% | fetal viability at E18 (inseminated mice; 3 mg/kg on E1 (n=21 fetuses) or E7 (n=8 fetuses)): viable | crown-rump length on E18 (inseminated mice; 3 mg/kg on E1, n=7 embryos): 13.0±0.1 mm | birth defects (inseminated mice; 3 mg/kg on E1 or E7, fetuses at E18): no birth defects | reduction of crown-rump length on E18 relative to control (inseminated mice; 3 mg/kg on E7): 19% | reduction of tail length relative to control (inseminated mice; 3 mg/kg on E7): 12% | crown-rump length on E18 (inseminated mice; 3 mg/kg on E7, n=7 embryos): 16.5±0.5 mm | tail length on E18 (inseminated mice; 3 mg/kg on E7, n=7 embryos): 10.0±0.1 mm | litters after remating (plugged mice): normal litters in all mice | effect on live births (female C57BL/6 mice; single dose 30 mg/kg s.c. on E0): completely block live births | effect on live births (female C57BL/6 mice; single dose 30 mg/kg s.c. on E(-1)): completely block live births | reduction of percentage of animals with successful pregnancies (female C57BL/6 mice; single dose 30 mg/kg s.c. on E(-2)): 80% | frequency of litters (female C57BL/6 mice; single dose 30 mg/kg s.c. three to five days prior to mating): same frequency as controls | number of dead births relative to controls (female C57BL/6 mice; single dose 30 mg/kg s.c., any time point E(-5) to E0): No differences | percentage of mated animals with viable births (female C57BL/6 mice; single dose 30 mg/kg s.c., treatments on E0, E-1 and E-2 (FIG. 8)): inhibition of viable births
